A word on the IC50: it is the midpoint of a concentration-inhibition curve. High values mean lower potency, low ones higher potency. As a reminder, the viability is a per cent measure of how many cells are alive, often set against a control. The inhibition is the share of the control response that was lost under treatment. High values mean a response far below the control, low ones a response near the control.

The record followed here is ChEMBL document CHEMBL3826960, “Robust design of some selective matrix metalloproteinase-2 inhibitors over matrix metalloproteinase-9 through in silico/fragment-based lead identification and de novo lead modification: Syntheses and biological assays” (Bioorg Med Chem, 2016).

Some results are limits rather than exact numbers.

One assay concerns the target T1, Interstitial collagenase (Homo sapiens, UniProt P03956).
T1 sequence (P03956 whole entry): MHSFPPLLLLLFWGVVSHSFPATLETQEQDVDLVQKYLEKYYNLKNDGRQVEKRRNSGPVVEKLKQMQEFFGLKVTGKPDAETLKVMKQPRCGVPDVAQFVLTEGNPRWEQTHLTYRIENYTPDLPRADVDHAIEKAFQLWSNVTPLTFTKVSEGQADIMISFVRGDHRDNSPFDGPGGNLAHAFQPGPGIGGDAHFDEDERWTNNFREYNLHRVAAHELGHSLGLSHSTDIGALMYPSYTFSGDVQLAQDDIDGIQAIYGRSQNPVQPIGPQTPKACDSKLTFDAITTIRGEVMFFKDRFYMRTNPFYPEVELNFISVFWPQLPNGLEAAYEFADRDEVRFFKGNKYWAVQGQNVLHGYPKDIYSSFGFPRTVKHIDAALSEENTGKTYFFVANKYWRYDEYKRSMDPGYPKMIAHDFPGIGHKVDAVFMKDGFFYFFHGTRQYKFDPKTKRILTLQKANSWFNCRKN

Assay [1] concerns the target Matrix metalloproteinase-14 (Homo sapiens, UniProt P50281).
Description: Inhibition of human recombinant MMP14 by colorimetric analysis
For assay [2], the system named is A549. The experiment in a line: cells. In kind it is functional. The settings on record: Homo sapiens, A549, 48 h.
Description: Cytotoxicity against human A549 cells assessed as cell viability at 100 uM after 48 hrs by MTT assay
Assay [3] concerns A549. The experiment in a line: cells. Format: functional. The conditions noted are these: Homo sapiens, A549, 48 h. This is another data set of the same source.
Description: Cytotoxicity against human A549 cells assessed as cell viability at 300 uM after 48 hrs by MTT assay
The target in a further assay is Neutrophil collagenase (Homo sapiens, UniProt P22894).
The target of assay [4] is Macrophage metalloelastase (Homo sapiens, UniProt P39900).
Description: Inhibition of human recombinant MMP12 by colorimetric analysis
The target of assay [5] is Matrix metalloproteinase-9 (Homo sapiens, UniProt P14780).
Description: Inhibition of human recombinant MMP9 by colorimetric analysis
Assay [6] has as its system A549. Nature of the assay: cells. Format: functional, cell-based. The conditions noted are these: Homo sapiens, A549, 48 h.
Description: Cytotoxicity against human A549 cells assessed as cell viability after 48 hrs by MTT assay
For assay [7], the system named is A549. The experiment in a line: cells. In kind it is functional. The settings on record: Homo sapiens, A549, 24 h.
Description: Reduction of MMP2 expression in human A549 cells at 50 uM after 24 hrs by confocal microsocopy
Assay [8] has as its system A549. Nature of the assay: cells. The conditions noted are these: Homo sapiens, A549, 48 h. Format: functional. This is another data set of the same source.
Assay [9] relates to A549. The experiment in a line: cells. Format: functional. The conditions noted are these: Homo sapiens, A549, 48 h. This is another data set of the same source.

Chain of Neutrophil collagenase (P22894 whole entry): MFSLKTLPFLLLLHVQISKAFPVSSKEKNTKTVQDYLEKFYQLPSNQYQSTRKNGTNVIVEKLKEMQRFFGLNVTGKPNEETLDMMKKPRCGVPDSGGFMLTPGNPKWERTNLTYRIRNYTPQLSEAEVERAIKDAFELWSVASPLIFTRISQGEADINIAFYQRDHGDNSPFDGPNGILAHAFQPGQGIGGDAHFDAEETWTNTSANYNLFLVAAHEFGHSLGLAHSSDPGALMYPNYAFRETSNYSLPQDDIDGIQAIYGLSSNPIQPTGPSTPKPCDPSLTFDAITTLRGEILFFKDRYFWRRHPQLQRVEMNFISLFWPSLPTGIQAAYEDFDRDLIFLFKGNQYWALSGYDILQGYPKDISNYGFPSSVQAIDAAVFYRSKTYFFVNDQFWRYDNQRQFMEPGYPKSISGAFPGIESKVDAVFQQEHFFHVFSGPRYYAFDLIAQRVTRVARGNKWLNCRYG
Chain of Matrix metalloproteinase-9 (P14780 whole entry): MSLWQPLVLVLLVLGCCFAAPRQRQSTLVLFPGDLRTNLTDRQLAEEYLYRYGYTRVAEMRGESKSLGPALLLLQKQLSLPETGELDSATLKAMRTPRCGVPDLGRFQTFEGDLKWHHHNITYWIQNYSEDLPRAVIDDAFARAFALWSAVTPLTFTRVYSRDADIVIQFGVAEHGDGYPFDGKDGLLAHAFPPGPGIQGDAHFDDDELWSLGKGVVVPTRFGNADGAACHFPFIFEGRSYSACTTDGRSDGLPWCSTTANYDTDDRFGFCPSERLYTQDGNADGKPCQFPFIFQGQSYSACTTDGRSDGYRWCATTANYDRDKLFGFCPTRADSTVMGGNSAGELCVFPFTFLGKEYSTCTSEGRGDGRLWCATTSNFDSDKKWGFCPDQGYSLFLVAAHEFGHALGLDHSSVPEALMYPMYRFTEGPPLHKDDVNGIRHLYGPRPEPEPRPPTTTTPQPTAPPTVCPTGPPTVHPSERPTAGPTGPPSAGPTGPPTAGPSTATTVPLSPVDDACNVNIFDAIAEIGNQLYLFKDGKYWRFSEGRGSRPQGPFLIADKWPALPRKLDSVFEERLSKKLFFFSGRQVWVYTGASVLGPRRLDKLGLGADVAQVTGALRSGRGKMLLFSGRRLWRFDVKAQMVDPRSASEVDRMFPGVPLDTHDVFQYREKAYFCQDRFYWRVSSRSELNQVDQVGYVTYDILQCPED
Chain of Macrophage metalloelastase (P39900 whole entry): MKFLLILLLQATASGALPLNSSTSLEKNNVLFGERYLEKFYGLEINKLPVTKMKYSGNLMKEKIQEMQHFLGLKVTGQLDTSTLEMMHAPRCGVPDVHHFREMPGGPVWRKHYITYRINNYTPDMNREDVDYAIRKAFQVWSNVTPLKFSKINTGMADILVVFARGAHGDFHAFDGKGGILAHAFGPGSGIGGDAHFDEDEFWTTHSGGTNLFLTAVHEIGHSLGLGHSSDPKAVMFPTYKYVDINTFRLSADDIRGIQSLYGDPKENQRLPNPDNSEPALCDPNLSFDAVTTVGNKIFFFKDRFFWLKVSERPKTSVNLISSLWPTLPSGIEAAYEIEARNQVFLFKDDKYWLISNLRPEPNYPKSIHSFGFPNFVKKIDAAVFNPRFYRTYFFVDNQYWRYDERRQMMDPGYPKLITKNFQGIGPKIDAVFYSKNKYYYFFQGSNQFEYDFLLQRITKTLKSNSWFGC
Description for Interstitial collagenase: Inhibition of human recombinant MMP1 by colorimetric analysis
Description for Neutrophil collagenase: Inhibition of human recombinant MMP8 by colorimetric analysis

For `CCCCNC(=O)CC[C@H](NS(=O)(=O)c1ccc(-c2ccccc2)cc1)C(=O)O`, the IC50 against Interstitial collagenase was more than 10000 nM; in [1] it was 4640 nM; on Neutrophil collagenase it was 59.6 nM; in assay [4], 71 nM; in assay [5], 715 nM. The compound further returned a viability at 100 µM with A549 [2] of 80%. In the assay on A549 [3], the viability at 300 µM came to 59%.
Consider `CCCNC(=O)CC[C@H](NS(=O)(=O)c1ccc(-c2ccccc2)cc1)C(=O)O`, for which the IC50 on Interstitial collagenase is more than 10000 nM; in assay [1], 7780 nM; at Neutrophil collagenase it was 45.3 nM; in assay [5], 11300 nM.
Consider `COc1ccc(CNC(=O)CC[C@H](NS(=O)(=O)c2ccc(-c3ccccc3)cc2)C(=O)O)cc1`, for which half-maximal inhibition in assay [5] (IC50) required 1820 nM.
In the case of `O=C(CC[C@H](NS(=O)(=O)c1ccc(-c2ccccc2)cc1)C(=O)O)NCc1ccc(F)cc1`, the IC50 at Interstitial collagenase is more than 10000 nM; in assay [1], 5420 nM; against Neutrophil collagenase it was 47 nM; in [4] it was 84 nM; in assay [5], 1160 nM. Besides, in the assay with A549 [2], the viability at 100 µM came out at 80%. Moreover, the viability at 300 µM with A549 [3] was determined as 85%.
On to `O=C(CC[C@H](NS(=O)(=O)c1ccc(-c2ccccc2)cc1)C(=O)O)NCc1cc(C(F)(F)F)cc(C(F)(F)F)c1`, for which the half-inhibitory concentration (IC50) with A549 [6] was 270000 nM; at Interstitial collagenase, more than 10000 nM; in assay [1], 6310 nM; against Neutrophil collagenase, 228 nM; in [4], 462 nM; in assay [5], 6740 nM. Besides, the inhibition at 50 µM with A549 [7] was not above 78.9%. Further, the viability at 100 µM with A549 [2] is 80%; in the assay on A549 [8], 98.5%. The viability at 200 µM with A549 [9] came to 96.1%. The compound further had a viability at 300 µM in the assay with A549 [3] of 43%.
As for `O=C(CC[C@H](NS(=O)(=O)c1ccc(-c2ccccc2)cc1)C(=O)O)NCc1ccccc1`, the IC50 against Interstitial collagenase is more than 10000 nM; in [1] it was 427 nM; at Neutrophil collagenase, 21.3 nM; in assay [4], 53.2 nM; in [5], 492 nM. In addition, the inhibition at 50 µM in the assay with A549 [7] is not above 60.5%. For the same compound, the viability at 100 µM came to 80% with A549 [2] and 98.3% with A549 [8]. For the same compound, the viability at 200 µM in the assay on A549 [9] was found to be 95.8%. Further, the viability at 300 µM with A549 [3] was found to be 66%.
As for `CNC(=O)CC[C@H](NS(=O)(=O)c1ccc(-c2ccccc2)cc1)C(=O)O`, the half-maximal inhibitory concentration (IC50) in [5] amounted to 38400 nM.
Same read-out and setting: the same measure for `CCCCCNC(=O)CC[C@H](NS(=O)(=O)c1ccc(-c2ccc(Br)cc2)cc1)C(=O)O`: 5490 nM; for `NC(=O)CC[C@H](NS(=O)(=O)c1ccc(-c2ccccc2)cc1)C(=O)O`: 7430 nM.
As for `O=C(CC[C@H](NS(=O)(=O)c1ccc(-c2ccccc2)cc1)C(=O)O)NCc1ccccc1Cl`, the IC50 is more than 10000 nM at Interstitial collagenase; 1610 nM in [1]; 39 nM against Neutrophil collagenase; 63 nM in assay [4]; 880 nM in [5]. The same compound displayed a viability at 100 µM in the assay with A549 [2] of 80%. In the assay with A549 [3], the viability at 300 µM was found to be 68%.
The compound `O=C(CC[C@H](NS(=O)(=O)c1ccc(-c2ccccc2)cc1)C(=O)O)NCc1ccc(Cl)cc1` yielded a 50% inhibitory concentration (IC50) in [5] of 2090 nM.
The same measure, in the same setting: then `CC(C)(C)NC(=O)CC[C@H](NS(=O)(=O)c1ccc(-c2ccccc2)cc1)C(=O)O`, with 8500 nM.
Consider `CCCCCNC(=O)CC[C@H](NS(=O)(=O)c1ccc(-c2ccccc2)cc1)C(=O)O`, for which the 50% inhibitory concentration (IC50) on Interstitial collagenase is more than 10000 nM; in [1] it was 1000 nM; against Neutrophil collagenase, 59 nM; in assay [4], 52.3 nM; in [5], 5720 nM. This compound registered an inhibition at 50 µM in the assay with A549 [7] not above 52.1%. This compound registered a viability at 100 µM in the assay with A549 [2] of 80%. In the assay with A549 [3], this compound came in with a viability at 300 µM of 61%.
`CC(C)NC(=O)CC[C@H](NS(=O)(=O)c1ccc(-c2ccccc2)cc1)C(=O)O` came in with a half-maximal inhibitory concentration (IC50) in assay [5] of 7410 nM.
On to `CCNC(=O)CC[C@H](NS(=O)(=O)c1ccc(-c2ccccc2)cc1)C(=O)O`, for which the half-inhibitory concentration (IC50) in assay [5] amounted to 8710 nM.
For `O=C(CC[C@H](NS(=O)(=O)c1ccc(-c2ccccc2)cc1)C(=O)O)NCCc1ccccc1`, the IC50 against Interstitial collagenase is more than 10000 nM; in assay [1], 6880 nM; on Neutrophil collagenase, 104 nM; in assay [4], 297 nM; in assay [5], 7000 nM.
Regarding `CC(C)CNC(=O)CC[C@H](NS(=O)(=O)c1ccc(-c2ccccc2)cc1)C(=O)O`, the IC50 at Interstitial collagenase was more than 10000 nM; in assay [1] it was 8810 nM; against Neutrophil collagenase it was 226 nM; in assay [4] it was 247 nM; in [5], 8170 nM. Further, the viability at 100 µM in the assay on A549 [2] stood at 80%. Further, in the assay on A549 [3], the viability at 300 µM is 79%.
`O=C(CC[C@H](NS(=O)(=O)c1ccc(-c2ccccc2)cc1)C(=O)O)NC1CCCCC1`: the IC50 at Interstitial collagenase is more than 10000 nM; in [1] it was 2410 nM; on Neutrophil collagenase it was 64.8 nM; in assay [4], 73.2 nM; in [5], 636 nM. This compound also displayed a viability at 100 µM in the assay with A549 [2] of 80%. Moreover, in the assay with A549 [3], the viability at 300 µM came to 70%.
Regarding `O=C(CC[C@H](NS(=O)(=O)c1ccc(-c2ccccc2)cc1)C(=O)O)Nc1ccccc1`, the IC50 was more than 10000 nM against Interstitial collagenase; 1390 nM in assay [1]; 56.2 nM against Neutrophil collagenase; 296 nM in [4]; 4280 nM in assay [5]. In the assay on A549 [2], this compound displayed a viability at 100 µM of 80%. The viability at 300 µM with A549 [3] is 78%.
Take `CCCCCCNC(=O)CC[C@H](NS(=O)(=O)c1ccc(-c2ccccc2)cc1)C(=O)O`: the half-inhibitory concentration (IC50) is more than 10000 nM against Interstitial collagenase; 807 nM in assay [1]; 81.4 nM on Neutrophil collagenase; 96.1 nM in assay [4]; 5880 nM in [5]. The viability at 100 µM in the assay with A549 [2] was 80%. In addition, the viability at 300 µM in the assay with A549 [3] amounted to 65%.
As to `O=C(CC[C@H](NS(=O)(=O)c1ccc(-c2ccc(Br)cc2)cc1)C(=O)O)NCc1ccccc1`, the IC50 in assay [5] was 5990 nM.
